In patent US20260017958A1, “METHOD FOR DETERMINING REGION OF CELL THAT HAS UNDERGONE PROGRAMMED CELL DEATH, DEVICE COMPRISING DETERMINATION UNIT, AND INFORMATION PROCESSING PROGRAM INCLUDING DETERMINATION STEP” (priority 2022, published 2026):

Legend:
HepG2 cell clusters = conditions: FIG. 47 and 48
Procedure: A549 cells, a human lung cancer-derived cell line, were seeded on an EZSPHERE 6-well plate (manufactured by AGC Techno Glass Co., Ltd.) at a density of 1.50×10^5 cells per well, and the cells were cultured in MEM medium containing 10% fetal bovine serum and MEM Non-Essential Amino Acids Solution (100x) (manufactured by Gibco, Inc.) at a final concentration of 1× under the conditions of 5% CO2, 37° C., and 100% humidity for 3 days, to form cell clusters. A DMSO solution of staurosporine (manufactured by FUJIFILM Wako Pure Chemical Corporation) was added thereto so as to obtain a final concentration of 0, 10, 20, 50, 100, 200, 300, 500, 700, 1000, 2000, or 5000 nM, and the cells were further cultured for 1 day. […]
Subsequently, the threshold value of the amount of spatial variation of the refractive index used in the threshold method was set to 2×10^−4. Subsequently, the refractive index distribution data was subjected to Gaussian noise removal processing using a Gaussian filter, fourth-order differentiation processing, and image convolution processing, and the amount of spatial variation of the refractive index for each voxel included in the refractive index distribution data was calculated. […]

Procedure for A549 cell clusters: A549 cells, a human lung cancer-derived cell line, were seeded on an EZSPHERE 6-well plate (manufactured by AGC Techno Glass Co., Ltd.) at a density of 1.50×10^5 cells per well, and the cells were cultured in MEM medium containing 10% fetal bovine serum and MEM Non-Essential Amino Acids Solution (100x) (manufactured by Gibco, Inc.) at a final concentration of 1× under the conditions of 5% CO2, 37° C., and 100% humidity for 3 days, to form cell clusters. A DMSO solution of staurosporine (manufactured by FUJIFILM Wako Pure Chemical Corporation) was added thereto so as to obtain a final concentration of 0, 10, 20, 50, 100, 200, 300, 500, 700, 1000, 2000, or 5000 nM, and the cells were further cultured for 1 day. Under the conditions in which the final concentration of STS was 0 nM, a solution of DMSO (manufactured by Sigma-Aldrich Corporation), which was used as a solvent for STS, at a final concentration of 0.5% was added.
For the obtained cell clusters, the refractive index distribution data was acquired using an observation apparatus 1A and the ODT shown in the refractive index distribution measurement method C. An objective lens at a magnification of 60 times was used.
Subsequently, the threshold value of the amount of spatial variation of the refractive index used in the threshold method was set to 2×10^−4. Subsequently, the refractive index distribution data was subjected to Gaussian noise removal processing using a Gaussian filter, fourth-order differentiation processing, and image convolution processing, and the amount of spatial variation of the refractive index for each voxel included in the refractive index distribution data was calculated. Lastly, the obtained amount of spatial variation of the refractive index was compared with the threshold value 2×10^−4, a region having an amount of spatial variation of the refractive index greater than the threshold value was determined to be a region of cells that had undergone programmed cell death (region of dead cells), and a region having an amount of spatial variation of the refractive index smaller than the threshold value was determined to be a non-divided region (region of live cells).

Q: What does the source list for `CN[C@@H]1C[C@H]2O[C@@](C)([C@@H]1OC)n1c3ccccc3c3c4c(c5c6ccccc6n2c5c31)C(=O)NC4` [staurosporine]?
A: equivalent diameter of the cell cluster (A549 cell clusters; 0-5000 nM, FIG. 41): not dependent on the concentration of staurosporine; volume of the cell cluster (A549 cell clusters; 0-5000 nM, FIG. 42): not dependent on the concentration of staurosporine; proportion of regions determined to be non-divided regions (live cells) (A549 cell clusters; 0-5000 nM, FIG. 46): decreased in a staurosporine concentration-dependent manner; nuclear fragmentation (morphological feature of apoptosis) in refractive index tomography data (A549 cell clusters; 1000 nM, FIG. 43): cells with nuclear fragmentation, which is a morphological feature of apoptosis, were observed on the surface and the inside of the cell cluster; external shape of the cell cluster (HepG2 cell clusters): conspicuous changes in the external shape did not occur
